Source: the OPERA property sets (Mansouri et al. 2018)
Peptide text beside a SMILES is read from it.

| SMILES | logP |
| --- | --- |
| N#Cc1cccc([N+](=O)[O-])c1 | 1.17 |
| CC(=O)Nc1cccc2nccnc12 | 1.06 |
| NC(Cc1c[nH]c2ccc(F)cc12)C(=O)O (configuration not stated) | -0.71 |
| Cc1cc(N)ccc1Br | 2.53 |
| CC(=O)c1ccc2ncccc2c1 | 1.58 |
| O=[N+]([O-])C=Cc1ccccc1 | 2.11 |
| COc1ccc(C(C#N)C(C)C)cc1 (configuration not stated) | 2.68 |
| CCN(CC)CCOC(=O)C=Cc1cc(OC)c(OC)c(OC)c1 | 2.84 |
| CCNc1nc(NC(C)C(C)C)nc(SC)n1 (configuration not stated) | 3.9 |
| CNC(=O)ON=C(C)SC | 0.6 |
| C=CNP(=O)(NC=C)NC(=O)c1cccc(OC)c1 | 0.86 |
| c1ccc2nc3ccccc3nc2c1 | 2.84 |
| CCCCCCCCBr | 4.89 |
| CNC(=O)Oc1ccc2ccccc2c1 | 2.56 |
| COC(=O)Cn1ccnc1[N+](=O)[O-] | -0.09 |
| O=C(O)Cc1cccc(C(F)(F)F)c1 | 2.62 |
| C=C(C)C(=O)OCCCC | 2.88 |
| C=C1C(=O)OC2C1CCC(C)C1(O)C=CC(=O)C21C (configuration not stated) | 0.77 |
| CNC(=O)Oc1cc(C)c(C)c(C)c1 | 2.66 |
| COc1ccc(S(N)(=O)=O)cc1 | 0.47 |
| CCNc1nc(Cl)nc(NCC)n1 | 2.18 |
| Brc1ccccc1Br | 3.64 |
| CC(=O)c1ccccc1Cl | 2.09 |
| O=C(NCCO)C(F)(F)Cn1ccnc1[N+](=O)[O-] | -0.52 |

| SMILES | logP |
| --- | --- |
| CC(C)Oc1ccc([N+](=O)[O-])cc1 | 2.8 |
| NC(Cc1ccc(F)cc1)C(=O)O (racemic) | -1.89 |
| CCc1cc(-c2ccccc2)nnc1NCCN1CCOCC1 | 2.53 |
| CCC(=O)c1ccncc1 | 0.77 |
| CC(=O)C(=Cc1ccccc1)C(C)=O | 1.59 |
| CS(=O)(=O)Nc1ccccc1 | 0.95 |
| Nc1cnnc2ccccc12 | 1.04 |
| NCc1ccncc1 | -0.38 |
| COc1ccccc1NS(=O)(=O)c1ccc(N)cc1 | 1.56 |
| CCCCCCc1ccc(C(=O)OCCN(C)C)cc1 | 5.2 |
| CS(=O)(=O)c1ccc(Cl)cc1 | 1.06 |
| C=CC | 1.77 |
| Nc1cc(C(F)(F)F)cc(C(F)(F)F)c1 | 3.57 |
| CN(C)CCCc1ccco1 | 2.08 |
| O=NN(CCCl)C(=O)NC1CCCCC1Cl (configuration not stated) | 2.73 |
| CC(=O)Nc1cccc(OCC(=O)O)c1 | 0.48 |
| O=C(O)CCc1ccc(O)cc1 | 1.16 |
| CN(C)C#N | -0.15 |
| NS(=O)(=O)CCCOc1ccc([N+](=O)[O-])cc1 | 0.97 |
| CCS(=O)(=O)CCn1c([N+](=O)[O-])cnc1C | -0.35 |
| CCC[C@@H]1C[C@@H](C(=O)N[C@@H]([C@H]2O[C@H](SC)[C@H](O)[C@@H](O)[C@H]2O)[C@@H](C)O)N(C)C1 | 0.2 |
| O=C(O)COc1ccc(C2CCCCC2)cc1 | 3.79 |
| CN(C)c1nc(N(C)C)nc(N(C)C)n1 | 2.73 |
| Cn1ccc(=O)n(C)c1=O | -0.54 |

| SMILES | logP |
| --- | --- |
| NCCCN1CCN(CCCN)CC1 | -1.43 |
| COc1ccccc1NC(C)=O | 0.67 |
| COc1ccc(C=C(C(C)=O)C(C)=O)cc1 | 1.73 |
| NS(=O)(=O)c1ccc(C(=O)c2ccncc2)cc1 | 0.56 |
| CCc1ccc(C(=O)OCCN(C)C)cc1 | 3.15 |
| FC(F)(F)c1nc2c(Cl)cccc2[nH]1 | 2.93 |
| CC(=O)N[C@H](C(=O)N[C@@H](Cc1ccccc1)C(=O)N[C@@H](C)C(N)=O)C(C)C (Ac-Val-Phe-Ala-NH2) | 0.06 |
| NCC(F)(F)F | 0.24 |
| CCc1cccc(OCC(=O)O)c1 | 2.25 |
| COCc1ccc([N+](=O)[O-])o1 | 0.89 |
| O=C(O)c1ccccc1S | 2.39 |
| CN(C)c1cccc2c(S(N)(=O)=O)cccc12 | 2.01 |
| CC(=O)NC(C)C(=O)NC(C)C(=O)NC(C)C(=O)NC(C)(C)C (configuration not stated) | -0.51 |
| CC(C)N | 0.26 |
| COP(=O)(C=C(Cl)Cl)OC | 1.4 |
| Cc1cc2occ(C)c2c2oc(=O)ccc12 | 3.02 |
| CCOCCOCC | 0.66 |
| O=C(O)c1ccsc1 | 1.5 |
| NC(CO)C(=O)O (configuration not stated) | -3.07 |
| CC(=O)Nc1ccc2ncccc2c1 | 1.55 |
| COC(=O)Cc1cccs1 | 1.51 |
| CC(=O)Nc1cccc(N(C)C)c1 | 1.29 |
| Clc1cc(Cl)cc(Cl)c1 | 4.19 |
| CCCCNc1nc(NC(C)C)nc(SC(F)F)n1 | 4.75 |

| SMILES | logP |
| --- | --- |
| CN1CCN(C)CC1 | -0.4 |
| CCCCCCNC(=O)c1ccc(S(N)(=O)=O)cc1 | 2.05 |
| CNC(=O)Oc1ccc2c(c1)[C@]1(C)CCN(C)[C@@H]1N2C | 1.58 |
| O=[N+]([O-])C=Cc1ccsc1 | 1.94 |
| C1=CCOC1 | 0.46 |
| Cc1cnc(NS(=O)(=O)c2ccc(N)cc2)c(Br)c1 | 1.79 |
| CN(C)CCOC(=O)c1ccc(Cl)cc1 | 2.63 |
| O=C(Oc1ccccc1)n1cc(F)c(=O)[nH]c1=O | 0.64 |
| O=C(O)c1cc([N+](=O)[O-])c(Cl)c([N+](=O)[O-])c1 | 2.5 |
| CN1CCCC1 | 0.92 |
| CN(C)N=Nc1nc[nH]c1C(N)=O | -0.24 |
| N#CCC(N)=C(C#N)C#N | -0.13 |
| O=C1OC2(CCCC2)c2ccccc21 | 2.56 |
| Cc1noc(NS(=O)(=O)c2ccc(N)cc2)c1C | 1.01 |
| O=S(=O)(Nc1ccccc1)C(F)F | 1.95 |
| FC(F)(F)c1ccccc1Cl | 3.53 |
| O=[N+]([O-])c1ccc(C=Cc2ncccn2)o1 | 1.34 |
| O=C(O)CN1CCCCC1 | -1.05 |
| CC(=O)c1ccc2cccccc1-2 | 2.87 |
| CC(C(=O)O)c1ccc(N2CC3=C(CCCC3)C2=O)cc1 (configuration not stated) | 3.07 |
| CCC(=O)OC1(c2ccccc2)CC(C)N(C)CC1C (configuration not stated) | 3.13 |
| CC(=O)c1ccc(C(O)C(CO)NC(=O)C(Cl)Cl)cc1 (configuration not stated) | 0.57 |
| CC(=NNC(=S)NNC(=S)N(C)C)c1ccccn1 | 1.25 |
| CNCC(CC(C)C)c1ccccc1 (configuration not stated) | 3.76 |

| SMILES | logP |
| --- | --- |
| CON(C)C(=O)Nc1cccc(C(F)(F)F)c1 | 2.64 |
| COC(=O)C(C)NC(C)=O (configuration not stated) | -0.57 |
| C=CCc1ccccc1OCC(O)CNC(C)C (configuration not stated) | 3.1 |
| C=C(Br)CC1(C(C)C)C(=O)NC(=O)N(C)C1=O (configuration not stated) | 2.11 |
| Cc1cc([N+](=O)[O-])cc2c1NC(=O)CN=C2c1ccccc1 | 2.44 |
| CON=C(C(=O)NC1C(=O)N2C(C(=O)OC(C)OC(C)=O)=C(COC(N)=O)CSC12)c1ccco1 (configuration not stated) | 0.89 |
| O=[N+]([O-])c1ccc(CCO)cc1 | 1.12 |
| CC1(C)NC(=O)NC1=O | -0.48 |
| CCCS(=O)(=O)CCC | 0.39 |
| COc1ccc(C(c2ccc(OC)cc2)C(F)(F)F)cc1 | 4.76 |
| Cc1ccc(O)c([N+](=O)[O-])c1 | 2.37 |
| COc1cc(SC)c(OC)cc1CCN | 1.81 |
| O=C(c1ccccc1)c1ccccn1 | 1.88 |
| CC(=O)c1cccc(S(I)=C(N(C)C)N(C)C)c1 (configuration not stated) | -0.88 |
| CS(=O)(=O)c1ccc(N)cc1 | -0.12 |
| Cc1[nH]ncc1[N+](=O)[O-] | 1.02 |
| CC1(C)S[C@@H]2[C@H](NC(=O)C(C(=O)Oc3ccc4c(c3)CCC4)c3ccccc3)C(=O)N2[C@H]1C(=O)O (some centres not stated) | 3.77 |
| C=CCOc1ccc(CC(=O)O)cc1Cl | 2.48 |
| NC(Cc1ccc2ccccc2c1)C(=O)O (configuration not stated) | -0.15 |
| NNC(=O)c1ccnc(Br)c1 | 0.25 |
| Cc1cccc(O)c1 | 1.96 |
